Structures can show the parent of a compound that is named as a salt.
First: CCC(=O)N(CC1CCNCC1)c1ccc2cc(OC)ccc2c1.O=C(O)C(F)(F)F
Second: CCC(=O)N(CC1CCNCC1)c1ccc2cc(OCc3ccccc3)ccc2c1.O=C(O)C(F)(F)F
The melting point of the first is higher: 168 to 170 °C for the first, 151 to 153 °C for the second.

First: CCC(=O)N(CC1CCNCC1)c1cccc(Cl)c1 (as salt: salt)
Second: CCC(=O)N(CC1CCNCC1)c1ccccc1 (as salt: trifluoroacetic acid salt)
The melting point of the first is lower: 94 to 96 °C for the first, 98 to 100 °C for the second.

Compared with `COCC(=O)N(CC1CCNCC1)c1ccc(Cl)c(Cl)c1` (as salt: salt), `CC(=O)N(CC1CCNCC1)c1ccc(Cl)c(Cl)c1` (as salt: trifluoroacetic acid salt) is higher in melting point: 115 to 117 °C for the first, 172 to 174 °C for the second.

First: CCC(=O)N(CC1CCNCC1)c1ccccn1 (as salt: trifluoroacetic acid salt)
Second: CCC(=O)N(CC1CCNCC1)c1ccc(Cl)cn1 (as salt: trifluoroacetic acid salt)
The melting point of the first is lower: 108 to 110 °C for the first, 134 to 136 °C for the second.

— patent US20100204275A1 (published 2010)
